Usually ED50 stands for the dose that gives a 50% effect, or the effect in half of the subjects.

Molecules are shown by their SMILES.

Assay [1] deals with ulcers developed in the stomach. Put plainly: Ethanol-induced gastric ulcer in rats. In kind it is in vivo, Wistar male rats. Conditions: for ED50: Rattus norvegicus, oral administration 30 min before 1 ml ethanol (99.5%), total ulcer length after 1 h, read-out: ED50 (anti-ulcer action); for anti-ulcer action: oral, carnosic acid 1, 5, 25 mg/kg, carnosol 2.5, 10, 25 mg/kg, ethanol ulcer, FIG. 1 and 2. The procedure: To Wistar male rats (5 rats per group) of 180-200 g body weight fasted for 24 hours before the start of a test, carnosic acid obtained in Example 1 was orally administered in dose levels of 1, 5 and 25 mg per kg body weight, after suspending it in water. Similarly, carnosol obtained in Example 1 was orally administered in dose levels of 2.5, 10 and 25 mg per kg body weight, after suspending it in water. After 30 minutes of the administration, 1 ml of ethanol (99.5%) was orally administered to each rat. After one hour of the ethanol administration, laparotomy was carried out and the lengths of all ulcers developed in the stomach were measured and added up. Similar measurements were carried out on the rats of the control group which received ethanol without receiving the above compounds and the result obtained was compared with the above results.

Assay [2] has the same test system. Conditions: well known anti-ulcer compound, comparison value; cited from earlier work.

Take `CC(C)c1cc2c(c(O)c1O)[C@@]13CCCC(C)(C)[C@@H]1C[C@@H]2OC3=O` [carnosol]: in assay [1], the ED50 amounted to 9.6 mg/kg and the anti-ulcer action entry is reported as “potent anti-ulcer action”.
`CC(C)c1cc2c(c(O)c1O)[C@@]1(C(=O)O)CCCC(C)(C)[C@@H]1CC2` [carnosic acid]: in assay [1], the 50% effective dose (ED50) worked out at 3.1 mg/kg and the anti-ulcer action entry is “potent anti-ulcer action”.
On to `NC(N)=Nc1nc(CSCCN/C=N/S(=O)(=O)c2ccc(Br)cc2)cs1` [ebrotidine], for which the “ED50 (anti-ulcer action), comparison compound” value in assay [2] was 26.54 mg/kg.

The values are drawn from US6638523B1, “Method of treating ulcers” (Nagase & Company, Ltd., priority 1999, dated 2003).
